Results: paper PMC8328489, “Automated Synthesis and Initial Evaluation of (4′-Amino-5′,8′-difluoro-1′H-spiro[piperidine-4,2′-quinazolin]-1-yl)(4-[^18F]fluorophenyl)methanone for PET/MR Imaging of Inducible Nitric Oxide Synthase” (Molecular Imaging, 2021)
Read-outs that look alike come from different tables or passages of the source. One block for each compound: values may come before it.

Key:
[1] = Log P measurement (1-octanol/phosphate buffer, UV); assay type: physicochemical; conditions: 1-octanol / 0.02 M phosphate buffer; 1-octanol / phosphate buffer pH 7.4
Method: The partition coefficient of FBAT, determined between 1-octanol and 0.02 M phosphate buffer at pH 7.4, was measured by UV spectrophotometer (SPARK 10 M from Tecan) at wavelength 230 nm.

iNOS [2] = conditions: cited from earlier work
eNOS = conditions: cited from earlier work; for selectivity vs. eNOS: iNOS vs. eNOS
nNOS = test system: nNOS; design: method as in PMID 11327580; conditions: cited from earlier work
[3] = dog, 10 min postinjection; cited from earlier work
[4] = within 5 min postinjection; cited from earlier work
[5] = test system: murine microglial BV2 cells; experiment: In vitro [^18F]FBAT uptake assay; assay type: cell-based; conditions: pretreatment 0.1 mM or 1 mM for 1 h
Method: BV2 cells were cultured as described above, washed three times with fresh medium, pretreated with a selective iNOS inhibitor, aminoguanidine (AMG), (0, 1, or 0.1 mM) for 1 h, and then treated with cell culture media containing LPS and the inhibitor. At the indicated time points, the cells were washed thrice with fresh cell culture media, then incubated in fresh cell culture media continuing the radiotracer [^18F]FBAT at 0.37 MBq/mL for 15, 30, or 60 min, harvested by gentle scraping, and pelleted by centrifugation at 1500 g for 2 min. The weight of the cell pellet and 0.1 mL of the radioactive supernatant was determined. A Packard 5500 gamma counter (PerkinElmer, Billerica, MA, USA) was used to quantify radioactivity as cpm/g cells or cpm/mL media, respectively. Cell-to-medium radioactivity concentration ratios were calculated and plotted over time to evaluate the kinetics of accumulation of the radiotracer.
(§1) iNOS is the enzyme responsible for NO generation in BV2 cells; therefore, accumulation of [^18F]FBAT in BV2 cells before or after iNOS inhibitor versus NO production was also assessed.

[6] = test system: murine microglial BV2 cells; experiment: LPS-dependent nitric oxide (NO) production, Griess assay; assay type: cell-based; conditions: pretreatment 0.1 or 1 mM
Method: Briefly, murine microglial BV2 cells were cultured in high-glucose Dulbecco's modified Eagle's medium (DMEM) supplemented with 100 U/mL penicillin. The cells were cultured in 6-well plates (~50,000 cells/well) in a humidified 5% CO2 atmosphere at 37°C until ∼60–70% confluent, washed three times with fresh media, and cultured in complete media containing LPS (0, 50, 100, or 200 ng/mL, Sigma-Aldrich, St. Louis, MO, USA). At the indicated time points, the culture media were harvested.
To assay NO, 100 μL aliquots of culture media were added to 100 μL of Griess reagent (1% sulfanilamide in 5% H3PO4) in 96-well plates, incubated at room temperature for 10 min; then, 50 μL NED Griess reagent (0.1% N-naphthyl-ethylenediamine dihydrochloride) was added and incubated for 10 min, and the absorbance values were determined at 540 nm using a TECAN Sunrise ELISA Reader. Fresh culture medium was used as a blank. The concentrations of nitrite were determined by comparison with a standard curve of sodium nitrite prepared in cell culture media.
as §1

iNOS [7] = molecular target: T1, iNOS (Mus musculus, UniProt P29477); experiment: In vivo brain PET/MR imaging of LPS-induced iNOS expression (SUV, SUR, AUC) incl. aminoguanidine blocking; design: species or system C57BL/6 mice; conditions: 50 mg/kg i.p. pretreatment
T1 construct: tracer to detect iNOS expression in mice injected with lipopolysaccharide (LPS) to induce brain inflammation; from tissue; host or cells: brain of living C57BL/6 mice (LPS-induced); fixed brain sections for IHC
Method: For the imaging experiments, twelve C57BL/6 mice were injected i.p. with 0.9% NaCl, eighteen mice were injected i.p. with 0.1 mL of LPS in saline (5 mg/kg), and six mice were injected i.p. with aminoguanidine (Sigma-Aldrich) 30 min prior to 5 mg/kg LPS. In vivo imaging was performed 3 h or 24 h after injection of LPS; then, the mice were immediately humanely euthanized and the brains were removed for immunostaining.
Mice (n = 30) were anesthetized with 2% isoflurane (in oxygen) and injected with [^18F]FBAT (11.1 MBq; 0.3 mCi) via the tail vein. Dynamic PET images were obtained in fully three-dimensional list mode for 30 min using a small animal SuperArgus 2r PET system (SEDECAL, Madrid, Spain) or 7T PETMR Inline (Bruker, Rheinstetten, Germany; energy window, 350-650 keV; timing window, 6 ns). Images were acquired every 10 s for 12 images, 60 s for three images, 300 s for three images, or 600 s for […]. The anatomical structure of the brain was imaged using T2 MRI. The MRI sequences included 0.5 mm thick T2 Turbo RARE high-resolution images (TR = 3000 ms, TE, 46 ms, matrix, 512 × 256, average, 40, slice number, 30, field of view, 20 × 10 mm).
After determining the optimal imaging time point for [^18F]FBAT, we performed a blocking study using a selective iNOS inhibitor to assess the specificity of the tracer for iNOS. Separate 7T PET/MR studies with [^18F]FBAT were performed for mice (n = 6) administered a bolus of aminoguanidine (50 mg/kg i.p.) 30 min prior to administration of [^18F]FBAT. The time course of [^18F]FBAT radioactivity in the brain after administration of the iNOS inhibitor was assessed and compared to that of the mice in the LPS 3 h group.
Images were reconstructed by the Fourier rebinning algorithm and two-dimensional filtered back projection using a ramp filter with a cutoff at Nyquist. The regional radioactivity concentration (kBq/cc) of [^18F]FBAT was estimated from the mean pixel values within the region of interest (ROI) corresponding to MR images of various organs and regions of the brain. ROI for carotid artery, heart muscle, lung, liver, spleen, and kidney were defined and time activity curves (TACs) generated. TACs for whole brain, cortex, cerebellum, and brainstem were also determined as described above.
The concentration of radioactivity (kBq/cc, μCi/cc) was converted to standardized uptake value (SUV), and the mean and standard deviation (SD) of radiotracer accumulation values were calculated for different organs and regions of the brain. Data were analyzed with PMOD 4.0 software (PMOD Technologies Ltd., Zurich, Switzerland).

iNOS [8] = experiment: Immunohistochemistry of iNOS in brain sections; assay type: in vivo, C57BL/6 mice; conditions: pretreatment, vs LPS 3 h group
Method: After imaging, mice were terminally anesthetized with ketamine/xylazine and perfused with 4% paraformaldehyde, and the brains were dissected, postfixed overnight in 4% paraformaldehyde at 4°C. Five-micrometer thick paraffin-embedded brain tissues were deparaffinized, rehydrated, microwaved in 10 mM citrate buffer (pH 6.0) at 100°C for 10 min for antigen retrieval, washed, incubated in 3% […] for 15 min at RT to inhibit endogenous peroxidases, and blocked in blocking solution for 60 min at RT.
Sections were incubated with primary NOS2/NOS1 antibodies (Cat# MAB 1627; Abnova, Walnut, CA, USA) diluted 1 : 100 overnight at 4°C, developed using the Vectastain Elite kit (Vector Laboratories, Burlingame, CA) following the manufacturer's instructions, and examined using an AxioScope A1 microscope (Zeiss, Oberkochen, Germany) equipped with an Axiocam 512 color digital camera (Zeiss).
The immunohistochemistry images were converted into 8-bit grayscale images in the range. Immunostaining intensity was manually measured in the region of interest (ROI). The median (25%, 75% interquartile range) percentage score for each group (control, LPS 3 h, and LPS 24 h) was calculated as the sum of the individual number of slides within the group.

logP [1]: 1.4 ± 0.27
Compound: NC1=NC2(CCN(C(=O)c3ccc(F)cc3)CC2)Nc2c(F)ccc(F)c21 [FBAT, (4′-amino-5′,8′-difluoro-1′H-spiro[piperidine-4,2′-quinazolin]-1-yl)(4-fluorophenyl)methanone]

Compound: NC1=NC(c2ccc(F)cc2)Cc2cccc(F)c21 (stereo not drawn) [FFDI, 8-fluoro-3-(4-fluorophenyl)-3,4-dihydro-1-isoquino-linamine]
IC50 (iNOS [2]; read-out: IC50 (affinity for iNOS)): 0.16 µM
selectivity for iNOS vs. eNOS (eNOS): ~ 1000 fold
selectivity for iNOS vs. nNOS (nNOS): 100 fold

Compound: COC(=O)[C@@H](N)CCCN=C(N)N[N+](=O)[O-] [[^11C]L-NAME, N-omega-nitro-L-arginine [^11C]methyl ester]
IC50 (iNOS [2]; read-out: iNOS IC50): 20 µM
fraction of radioactivity present as [^11C]methanol (metabolite) [3]: 65%

Compound: CSC(=N)N [[^11C]MITU, S-[^11C]methylisothiourea]
IC50 (iNOS [2]; read-out: iNOS IC50): 3 µM

Compound: [11CH3]SC(=N)N [[^11C]MITU, S-[^11C]methylisothiourea]
selectivity vs. eNOS (eNOS): 2.3 fold

Compound: Cc1cc(N)nc(CC(C)F)c1 (stereo not drawn) [[^18F]9, [^18F]6-(2-fluoropropyl)-4-methyl-pyridin-2-amine]
parent fraction of activity in the blood [4]: 40.3%

Compound: N=C(N)SCC[18F] [[^18F]FEITU, S-(2-[^18F]fluoroethyl)isothiourea]
IC50 (iNOS [2]; read-out: iNOS IC50): 0.14 µM
selectivity vs. eNOS (eNOS): 9 fold

Compound: N=C(N)NN [aminoguanidine, reference compound]
effect on LPS-induced [^18F]FBAT accumulation in BV2 cells [5]: inhibited
effect on LPS-induced [^18F]FBAT accumulation in BV2 cells ([5]; listed as AMG): significantly reduced
effect on LPS-induced NO production [6]: completely abolished
effect on [^18F]FBAT accumulation (SUV, AUC, Vt) in brain of LPS-induced mice (iNOS [7]): significantly decreased
effect on [^18F]FBAT accumulation (SUV, AUC, Vt) in brain of LPS-induced mice (iNOS [7]; listed as Aminoguanidine): significantly reduced
effect on LPS-induced iNOS immunoactivity, brainstem (iNOS [8]): significantly reduced
effect on LPS-induced iNOS immunoreactivity, cortex (iNOS [8]): significantly reduced
